Reference: patent US8168651B2, “Protein kinase modulators” (Cylene Pharmaceuticals, Inc., priority 2008, dated 2012)
Read-outs that look alike come from different tables or passages of the source.

How the values were obtained:
[1] = tested on: MV-4-11; experiment: Cell proliferation modulatory activity, MV-4-11; format: cell-based; settings: Homo sapiens, MV4-11
[2] = tested on: K-562; experiment: Cell proliferation modulatory activity, K-562; format: cell-based; settings: Homo sapiens, K562
[3] = target: recombinant human PIM1 (Homo sapiens (Human), UniProt P11309); experiment: PIM-1 kinase activity in cell-free in vitro assay; format: biochemical; settings: for inhibition at 0.5 µM: 500 nM compound, read-out: PIM-1: % inh 500 nM
recombinant human PIM1, sequence (P11309 whole entry): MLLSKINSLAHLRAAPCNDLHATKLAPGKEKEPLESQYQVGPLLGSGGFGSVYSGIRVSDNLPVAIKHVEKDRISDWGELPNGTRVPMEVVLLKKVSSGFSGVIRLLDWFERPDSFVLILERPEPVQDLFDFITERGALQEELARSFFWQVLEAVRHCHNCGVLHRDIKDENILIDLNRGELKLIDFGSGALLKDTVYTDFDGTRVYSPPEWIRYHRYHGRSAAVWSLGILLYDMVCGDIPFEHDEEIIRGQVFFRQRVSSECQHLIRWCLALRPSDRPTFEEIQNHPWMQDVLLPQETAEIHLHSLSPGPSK

[4] = tested on: MV-4-11; experiment: Cell proliferation modulatory activity, MV-4-11; format: cell-based; settings: Homo sapiens, MV4-11; remark: listed apart in the source
[5] = tested on: HCT-116 human colorectal carcinoma cells; experiment: Cell-proliferation assay using Alamar Blue dye; format: cell-based; settings: Homo sapiens;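 note: cells exposed to compound for about 4 days, then Alamar Blue added and dye fluorescence read after about 4 h, compared with medium-only control wells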
[6] = target: Flt3 (Homo sapiens (Human), UniProt P36888); experiment: FLT-3 kinase activity in cell free in vitro assay; format: biochemical; settings: cell-free assay
Flt3, sequence (P36888 27-993): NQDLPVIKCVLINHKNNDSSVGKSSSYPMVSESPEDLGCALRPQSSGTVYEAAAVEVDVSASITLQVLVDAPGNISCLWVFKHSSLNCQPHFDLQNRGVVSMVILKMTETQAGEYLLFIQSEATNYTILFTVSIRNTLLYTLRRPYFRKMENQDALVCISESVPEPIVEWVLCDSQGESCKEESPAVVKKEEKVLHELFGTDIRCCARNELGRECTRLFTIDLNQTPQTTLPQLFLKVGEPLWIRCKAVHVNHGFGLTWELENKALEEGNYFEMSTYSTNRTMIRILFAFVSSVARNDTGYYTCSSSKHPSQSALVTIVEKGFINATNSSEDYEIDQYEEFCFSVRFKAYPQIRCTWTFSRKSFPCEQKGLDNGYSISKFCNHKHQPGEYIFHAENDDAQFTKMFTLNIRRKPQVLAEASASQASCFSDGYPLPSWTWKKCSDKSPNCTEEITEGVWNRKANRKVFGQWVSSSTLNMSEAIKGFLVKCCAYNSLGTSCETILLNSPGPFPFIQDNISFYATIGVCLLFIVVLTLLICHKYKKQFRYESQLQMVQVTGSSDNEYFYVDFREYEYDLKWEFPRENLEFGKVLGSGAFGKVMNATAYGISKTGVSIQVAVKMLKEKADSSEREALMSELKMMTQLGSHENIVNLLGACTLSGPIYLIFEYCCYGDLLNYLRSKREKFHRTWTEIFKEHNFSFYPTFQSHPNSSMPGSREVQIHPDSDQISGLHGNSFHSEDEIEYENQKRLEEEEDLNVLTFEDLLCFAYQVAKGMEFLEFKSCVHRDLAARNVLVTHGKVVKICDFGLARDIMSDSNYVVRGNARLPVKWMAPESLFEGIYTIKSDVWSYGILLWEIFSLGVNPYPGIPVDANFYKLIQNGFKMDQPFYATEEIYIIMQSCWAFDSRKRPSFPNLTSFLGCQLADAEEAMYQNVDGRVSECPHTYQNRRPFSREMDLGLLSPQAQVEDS

[7] = tested on: K-562; experiment: Cell proliferation modulatory activity, K-562; format: cell-based; settings: Homo sapiens, K562; remark: listed apart in the source
[8] = tested on: Jurkat; experiment: Cell proliferation modulatory activity, Jurkat; format: cell-based; settings: Homo sapiens
[9] = target: recombinant human CK2 (Homo sapiens (Human), UniProt P68400); experiment: CK2 assay (cell-free, 33P-ATP filter plate); format: biochemical; settings: cell-free assay; for IC50: 15 um ATP, read-out: CK2 (15 um ATP) IC50; for inhibition at 0.5 µM: 500 nM compound, read-out: CK2: % inh 500 nM
recombinant human CK2, sequence (P68400 whole entry): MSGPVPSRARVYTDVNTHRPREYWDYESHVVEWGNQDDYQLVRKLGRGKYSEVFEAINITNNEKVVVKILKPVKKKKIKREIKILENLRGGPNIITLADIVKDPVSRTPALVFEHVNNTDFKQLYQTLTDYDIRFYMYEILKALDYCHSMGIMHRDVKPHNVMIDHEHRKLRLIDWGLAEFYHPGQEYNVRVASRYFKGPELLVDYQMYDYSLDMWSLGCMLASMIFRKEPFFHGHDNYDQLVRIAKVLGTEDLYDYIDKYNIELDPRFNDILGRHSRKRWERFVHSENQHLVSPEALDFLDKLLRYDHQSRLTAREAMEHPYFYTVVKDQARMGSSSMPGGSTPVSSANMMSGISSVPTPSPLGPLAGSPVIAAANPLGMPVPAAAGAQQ
recombinant human CK2, sequence (P67870 whole entry partner): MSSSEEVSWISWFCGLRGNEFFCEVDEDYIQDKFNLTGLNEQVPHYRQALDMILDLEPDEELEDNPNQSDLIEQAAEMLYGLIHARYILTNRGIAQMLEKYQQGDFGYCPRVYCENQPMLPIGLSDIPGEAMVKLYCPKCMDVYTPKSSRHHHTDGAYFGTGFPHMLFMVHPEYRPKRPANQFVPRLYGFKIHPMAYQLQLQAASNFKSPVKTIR

[10] = tested on: K-562; experiment: Cell proliferation modulatory activity, K-562; format: cell-based; settings: Homo sapiens, K562; K-562 cells
[11] = tested on: MV-4-11; experiment: Cell proliferation modulatory activity, MV-4-11; format: cell-based; settings: Homo sapiens, MV4-11; MV-4-11 cells
[12] = HCT-116, HCT-116, second HCT-116 column (c8), read-out: HCT-116 (uM), cell proliferation modulatory activity
[13] = HCT-116, second HCT-116 column (c8), read-out: HCT-116 (uM) cell proliferation modulatory activity

SMILES | IC50 [4] | inhibition at 0.5 µM ([3]; cell-free assay) | IC50 ([6]; read-out: FLT-3) | IC50 [7] | IC50 [5, 12] | inhibition at 0.5 µM [9] | IC50 [10] | IC50 ([6]; read-out: FLT-3 (uM) IC50) | IC50 [11] | further results
O=C(O)c1ccc2c(c1)nc(Nc1ccccc1)c1ccncc12 |  |  |  |  |  |  |  |  |  | IC50 [1]: 6.45 µM; IC50 [2]: 4.01 µM; inhibition at 0.5 µM ([3]; cell-free): 21.9%; IC50 ([3]; cell-free): 1020 nM
CN(C)CCNc1nc2cc(C(=O)O)ccc2c2cnccc12 |  |  |  |  |  |  |  |  |  | IC50 [1]: > 10 µM; IC50 [2]: > 10 µM; inhibition at 0.5 µM ([3]; cell-free): 63.6%; IC50 ([3]; cell-free): 242 nM
OCc1cccc(Nc2nc3cc(-c4nnn[nH]4)ccc3c3sccc23)c1 |  |  |  |  |  |  |  |  |  | IC50 [1]: 0.609 µM; IC50 [2]: > 10 µM; inhibition at 0.5 µM ([3]; cell-free): 87.6%; IC50 ([3]; cell-free): 162 nM
N#Cc1cccc(Nc2nc3cc(C(=O)O)ccc3c3sccc23)c1 |  |  |  |  |  |  |  |  |  | IC50 [1]: 0.226 µM; IC50 [2]: > 10 µM; inhibition at 0.5 µM ([3]; cell-free): 71.4%; IC50 ([3]; cell-free): 213 nM
OCc1ccc2c(c1)nc(Nc1cccc(Cl)c1)c1ccncc12 | 0.529 µM | 4.22% | 0.013 µM | 5.52 µM |  |  |  |  |  | IC50 ([5]; HCT-116, read-out: HCT-116 (uM), cell proliferation modulatory activity, HCT-116, second HCT-116 column (c8)): 4.28 µM
NC(=O)c1ccc2c(c1)nc(Nc1cccc(C(F)(F)F)c1)c1nc(NC3CC3)ncc12 | 0.149 µM | 12.5% | 0.343 µM | 0.157 µM |  |  |  |  |  | IC50 [8]: 1.16 µM
CC(C)OC(=O)Nc1ccc2c(c1)nc(Nc1cccc(C(F)(F)F)c1)c1nc(NC3CC3)ncc12 | 0.108 µM | 10.1% | > 0.4 µM | 0.061 µM |  |  |  |  |  | IC50 [8]: 1.16 µM
CNC(=O)c1ccc2c(c1)nc(Nc1cccc(Cl)c1)c1ccncc12 |  | -39.8% | > 0.4 µM | > 10 µM | > 10 µM |  |  |  |  | IC50 [8]: 13.7 µM; IC50 [9]: > 750 nM
CN(C)C(=O)c1ccc2c(c1)nc(Nc1cccc(Cl)c1)c1ccncc12 | > 10 µM | 4.85% | > 0.4 µM | > 10 µM | 8.17 µM |  |  |  |  | IC50 [8]: 1.51 µM; IC50 [9]: > 750 nM
O=C(NC1CC1)c1ccc2c(c1)nc(Nc1cccc(Cl)c1)c1ccncc12 | > 10 µM | -5.18% | > 0.4 µM | > 10 µM | > 10 µM |  |  |  |  | IC50 [8]: 2.16 µM; IC50 [9]: 487 nM
O=C(Nc1ccccc1)c1ccc2c(c1)nc(Nc1cccc(Cl)c1)c1ccncc12 | 0.069 µM | -0.772% | > 0.4 µM | > 10 µM | > 10 µM |  |  |  |  | 
O=C(NCc1ccncc1)c1ccc2c(c1)nc(Nc1cccc(Cl)c1)c1ccncc12 | 0.181 µM | -12.8% | > 0.4 µM | > 10 µM | 2.5 µM |  |  |  |  | 
O=C(NCCN1CCOCC1)c1ccc2c(c1)nc(Nc1cccc(Cl)c1)c1ccncc12 | 0.099 µM | 1.16% | > 0.4 µM | > 10 µM | > 10 µM |  |  |  |  | 
O=C(NCc1ccccn1)c1ccc2c(c1)nc(Nc1cccc(Cl)c1)c1ccncc12 | > 10 µM | -11.1% | 0.289 µM | > 10 µM | 9.88 µM |  |  |  |  | 
COCCNC(=O)c1ccc2c(c1)nc(Nc1cccc(Cl)c1)c1ccncc12 | 0.043 µM | -29.7% | > 0.4 µM | > 10 µM | > 10 µM |  |  |  |  | 
O=C(NCc1ccccc1)c1ccc2c(c1)nc(Nc1cccc(Cl)c1)c1ccncc12 | 0.095 µM | -29.4% | 0.331 µM | > 10 µM | > 10 µM |  |  |  |  | 
CN1CCN(C(=O)c2ccc3c(c2)nc(Nc2cccc(Cl)c2)c2ccncc23)CC1 | > 10 µM | -28.4% | > 0.4 µM | > 10 µM | > 10 µM |  |  |  |  | 
CN1CCCN(C(=O)c2ccc3c(c2)nc(Nc2cccc(Cl)c2)c2ccncc23)CC1 | 0.171 µM | -11.8% | > 0.4 µM | > 10 µM | 2.67 µM |  |  |  |  | 
CC(=O)N1CCN(C(=O)c2ccc3c(c2)nc(Nc2cccc(Cl)c2)c2ccncc23)CC1 | > 10 µM | -5.01% | > 0.4 µM | > 10 µM | > 10 µM |  |  |  |  | 
O=C(Nc1nccs1)c1ccc2c(c1)nc(Nc1cccc(Cl)c1)c1ccncc12 | > 10 µM | -6.62% | > 0.4 µM | > 10 µM | > 10 µM |  |  |  |  | 

SMILES | IC50 [4] | inhibition at 0.5 µM ([3]; cell-free assay) | IC50 ([6]; read-out: FLT-3) | IC50 [7] | IC50 [5, 12] | inhibition at 0.5 µM [9] | IC50 [10] | IC50 ([6]; read-out: FLT-3 (uM) IC50) | IC50 [11] | further results
Cc1cnc(CNC(=O)c2ccc3c(c2)nc(Nc2cccc(Cl)c2)c2ccncc23)cn1 | > 10 µM | -19.8% | 0.362 µM | > 10 µM | > 10 µM |  |  |  |  | 
O=C(c1ccc2c(c1)nc(Nc1cccc(Cl)c1)c1ccncc12)N1CCOCC1 | > 10 µM | -14.4% | > 0.4 µM | > 10 µM | > 10 µM |  |  |  |  | 
O=C(NCc1cccnc1)c1ccc2c(c1)nc(Nc1cccc(Cl)c1)c1ccncc12 | 0.112 µM | -16.2% | > 0.4 µM | > 10 µM | > 10 µM |  |  |  |  | 
CC(C)(C)OC(=O)N1CCN(C(=O)c2ccc3c(c2)nc(Nc2cccc(Cl)c2)c2ccncc23)CC1 | > 10 µM | -7.41% | > 0.4 µM | > 10 µM | 5.97 µM |  |  |  |  | 
NCCNC(=O)c1ccc2c(c1)nc(Nc1cccc(Cl)c1)c1ccncc12 | > 10 µM | -19.8% | > 0.4 µM | > 10 µM | 7.22 µM |  |  |  |  | IC50 [8]: 7.67 µM
Clc1cccc(Nc2nc3ccccc3c3cnccc23)c1 |  | -22.8% |  |  |  | -42.8% | > 10 µM | 0.344 µM | 2.82 µM | IC50 [5, 13]: > 10 µM
O=C(O)c1ccc2nc(Nc3cccc(Cl)c3)c3ccncc3c2c1 |  | 11.9% |  |  |  | 67.8% | > 10 µM | > 0.4 µM | > 10 µM | IC50 [5, 13]: > 10 µM
O=C(O)c1ccc2c(c1)nc(Nc1ccc(Br)cc1F)c1ccncc12 |  |  |  |  |  |  | > 10 µM | 0.087 µM | 7.26 µM | IC50 [5, 13]: > 10 µM; IC50 ([3]; cell-free assay): 339 nM
O=C(O)c1ccc2c(c1)nc(Nc1cc(F)cc(Cl)c1)c1ccncc12 |  | 101% |  |  |  | 98.7% | 1.56 µM | 0.031 µM | 0.25 µM | IC50 [5, 13]: > 10 µM; IC50 ([3]; cell-free assay): 75 nM
O=C(O)c1ccc2c(c1)nc(Nc1cccc(Cl)c1)c1cnccc12 |  | 71.5% |  |  |  | -9.32% | > 10 µM | > 0.4 µM | > 10 µM | IC50 [5, 13]: > 10 µM; IC50 ([3]; cell-free assay): 122 nM
NC(=O)c1ccc2c(c1)nc(Nc1ccc(F)c(Cl)c1)c1ccncc12 |  | -9.45% |  |  |  | 66.1% | > 10 µM | 0.167 µM | 0.373 µM | IC50 [5, 13]: > 10 µM
NNC(=O)c1ccc2c(c1)nc(Nc1cccc(Cl)c1)c1ccncc12 |  | -10.8% |  |  |  | 34.9% | > 10 µM | 0.075 µM | 2.14 µM | IC50 [5, 13]: > 10 µM
Clc1cccc(Nc2nc3cc(-c4nnco4)ccc3c3cnccc23)c1 |  | -0.614% |  |  |  | 29.9% | > 10 µM | 0.236 µM | 0.501 µM | IC50 [5, 13]: 5.17 µM
NC(=O)c1ccc2c(c1)nc(Nc1cc(F)cc(Cl)c1)c1ccncc12 |  | 5.67% |  |  |  | 55.9% | > 10 µM | 0.012 µM | 0.222 µM | 
NC(=O)c1ccc2c(c1)nc(Nc1cccc(C(F)(F)F)c1)c1ccncc12 |  | 1.09% |  |  |  | 34.4% | 2.46 µM | 0.006 µM | 0.12 µM | IC50 [5, 13]: 4.28 µM
CONC(=O)c1ccc2c(c1)nc(Nc1cccc(Cl)c1)c1ccncc12 |  | -15.6% |  |  |  | 14.2% | 2.61 µM | > 0.4 µM | 0.691 µM | IC50 [5, 13]: 4.54 µM
Clc1cccc(Nc2nc3cc(-c4nnc[nH]4)ccc3c3cnccc23)c1 |  | -19.3% |  |  |  | -2.18% | 0.546 µM | 0.09 µM | 1.06 µM | IC50 [5, 13]: > 10 µM
O=C(O)c1ccc2c(c1)nc(NCCc1cccc(F)c1)c1ccncc12 [drawing 1560] |  |  |  |  |  |  |  |  |  | IC50 [1]: > 10 µM; IC50 ([5]; HCT-116, read-out: HCT-116 (uM), cell proliferation modulatory activity, HCT-116, second column): > 10 µM; inhibition at 0.5 µM ([3]; cell-free): 74%; IC50 ([3]; cell-free): 351 nM
O=C(O)c1ccc2c(c1)nc(Nc1cccc(C(F)(F)F)c1)c1nc(NC3CC3)ncc12 [drawing 1596] |  | -17.3% | > 0.4 µM |  |  |  |  |  |  | IC50 [8]: 3.13 µM
NC(=O)c1ccc2c(c1)nc(Nc1cccc(Cl)c1)c1ccncc12 [drawing 1674] | 0.037 µM | -3.44% | 0.003 µM | 1.23 µM | 2.13 µM | 91.2% |  |  |  | IC50 [8]: 0.91 µM; IC50 [9]: 417 nM
